The compounds below were run on Drosophila suzukii adults (assay: Multiple choice bioassay #2: known and putative repellents). Settings: 50 μL neat; six traps per arena; 24 h; n=6.
Type: in vivo
Method: Within each arena, six gated traps were positioned randomly in a circle (40 cm diameter) at equal distance with each trap 20 cm apart along the circumference. Each gated trap contained ˜5 g of store-bought organic blueberry fruit (n=5), as described elsewhere herein. One of the six traps served as a control (with blueberry fruit only) and the remaining five traps had one of the repellents added to the blueberry fruit. Each volatile (50 μL, neat) was released from a 1 mL polyethylene vial with a piece of cotton placed inside each trap (control traps had vials with cotton but without the volatile). A vial with a cotton ball soaked with deionized water was placed in the middle of the arena. Roughly 150 D. suzukii adults (1:1 male: female ratio) were released inside each arena and the number and sex of flies inside treatment and control traps was recorded after 24 h. The experiment started at 1:00 p.m., was replicated 6 times, and was done in a laboratory under 22±2° C., 55±5% RH, 16:8 (L:D) h. Data from multiple choice assays on the percent of male and female D. suzukii adults responding to each volatile were compared using ANOVA (Minitab version 17; Minitab Inc., State College, PA, USA). The ANOVA model included treatment, sex, and their interaction as fixed factors and block (replicate) as a random factor. A multi-comparison Tukey test (Minitab) was used to determine differences among treatments. Percent data were arcsine square-root transformed prior to ANOVA. Pairwise choice assays were analyzed using G-tests with William's correction. Non-responders were excluded from the statistical analyses.

Compound	strength of repellency among the five repellents (rank)
CC1CCCC2(C)CCCCC12O (stereo not shown) [geosmin]	the least repellent

The compounds below were run on Drosophila suzukii adults (assay: Multiple choice bioassay #1: anthracnose-induced volatiles, gated traps with blueberries). Settings: 50 μL neat volatile added to blueberry fruit in gated trap; 15 traps per arena; 24 h; n=4.
Type: in vivo
Method: These bioassays were done in arenas that consisted of a dome cage (60 cm width×60 cm length x 60 cm height; BugDorm-2120 Insect tent; shop.bugdorm.com) (FIG. 1A). Within each arena, 15 gated traps were positioned randomly in a circle (40 cm diameter) at equal distance with each trap 8.4 cm apart along the circumference (FIG. 1A). Each gated trap consisted of 50 mL polystyrene tubes (Fisher Scientific, Nazareth, PA, USA) covered with aluminum foil and sealed with Parafilm®, with a 4 mm-diameter hole in the center of the Parafilm to provide an entrance to flies. All traps had equal quantities (ca. 5 g) of store-bought organic blueberry fruit (n=5); fruit were sterilized with bleach prior to the study (10% bleach for 2 min, rinsed three times in distilled water). One of the 15 traps served as a control (with blueberry fruit only) and the remaining 14 traps had one of the anthracnose volatile compounds added to the blueberry fruit. The 14 compounds tested were: 3-hydroxy-2-butanone, styrene, (E)-2-hexen-1-ol, ethyl 3-hydroxy-3-methylbutanoate, 2-methyl-1-butanol, ethyl propanoate, 2-methyl-1-propanol, diethyl carbonate, 2-methylpropanal, 3-methyl-1-butanol, ethyl 2-methylpropanoate, ethyl butanoate, ethyl (E)-but-2-enoate, and 3-methyl-3 buten-1-ol (see Results). Each volatile (50 μL, neat) was released from a 1 mL polyethylene vial (Globe Scientific Inc., Paramus, NJ, USA) with a piece of cotton placed inside each trap (control traps had vials with cotton but without the volatile). A vial with a cotton ball soaked with deionized water was placed in the middle of the arena to provide flies with water during the experiment. Roughly 300 D. suzukii adults (1:1 male: female ratio) were released inside each arena and the number and sex of flies inside treatment and control traps was recorded after 24 h. The experiment started at 1:00 p.m., was replicated 4 times, and was done in a laboratory under 22+2° C., 55+5% RH, 16:8 (L:D) h.
Data from multiple choice assays on the percent of male and female D. suzukii adults responding to each volatile were compared using ANOVA (Minitab version 17; Minitab Inc., State College, PA, USA). The ANOVA model included treatment, sex, and their interaction as fixed factors and block (replicate) as a random factor. A multi-comparison Tukey test (Minitab) was used to determine differences among treatments. Percent data were arcsine square-root transformed prior to ANOVA. Pairwise choice assays were analyzed using G-tests with William's correction. Non-responders were excluded from the statistical analyses.

Compound	number of flies captured relative to the control
CCC(C)CO (stereo not shown) [2-methyl-1-butanol]	captured a similar number of flies as the control
CC(C)CO [2-methyl-1-propanol]	reduced the number of flies captured relative to the control
CCOC(=O)C(C)C [ethyl 2-methylpropanoate]	reduced the number of flies captured relative to the control
C=Cc1ccccc1 [styrene]	trapped a higher number of flies than the control
CCOC(=O)OCC [diethyl carbonate]	reduced the number of flies captured relative to the control
CCOC(=O)CC [ethyl propanoate]	reduced the number of flies captured relative to the control
CC(C)CCO [3-methyl-1-butanol]	reduced the number of flies captured relative to the control
CC(=O)C(C)O (stereo not shown) [3-hyrdroxy-2-butanone, 3-Hydroxy-2-butanone]	trapped a higher number of flies than the control
C=C(C)CCO [3-methyl-3-buten-1-ol]	reduced the number of flies captured relative to the control
CCOC(=O)CC(C)(C)O [ethyl 3-hydroxy-3-methylbutanoate, Ethyl 3-hydroxy-3-methylbutanoate]	captured a similar number of flies as the control
CCC/C=C/CO [(E)-2-hexen-1-ol]	captured a similar number of flies as the control
CC(C)C=O [2-methylpropanal]	reduced the number of flies captured relative to the control
